Values after ≈ are worked out from the molar mass of the structure shown.
Key:
P. aeruginosa LpxC = P. aeruginosa LpxC (Pseudomonas aeruginosa (strain ATCC 15692 / DSM 22644 / CIP 104116 / JCM 14847 / LMG 12228 / 1C / PRS 101 / PAO1), UniProt P47205); test: P. aeruginosa LpxC Inhibition Assay; format: biochemical; conditions: 1 nM P. aeruginosa LpxC, 2 μM substrate, LC-MS/MS; read-out: PA LpxC IC50
How it was run: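 Compounds pre-incubated 30 min at room temperature with 1 nM LpxC, then 2 μM UDP-3-O-(R-3-hydroxydecanoyl)-GlcNAc added; 20 min reaction in 50 mM sodium phosphate pH 7.5, 0.005% Triton X-100, quenched with HOAc. Product quantified by LC-MS/MS against calibration curve; IC50 from four-parameter logistic fit.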

P. aeruginosa PAO1 = test: Susceptibility Testing (MIC, broth microdilution); format: cell-based, Pseudomonas aeruginosa; conditions: Pseudomonas aeruginosa, PAO1, 20 h, P. aeruginosa PAO1, broth microdilution, 20 hours; read-out: PAO1 MIC
How it was run: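 Broth microdilution per CLSI in cation-adjusted Mueller-Hinton broth, inoculum ~5×10^5 CFU/mL, two-fold compound dilutions (1% DMSO final). Plates incubated 20 h in ambient air at 35° C. MIC is the lowest concentration preventing visible growth, confirmed by OD 600 nm reading.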

IC50 (P. aeruginosa LpxC) | MIC (P. aeruginosa PAO1) | Compound
< 0.5 nM | 0.71 µg/mL (≈ 1.53 µM) | C[S+]([O-])c1ccc(-c2ccc(C3=NO[C@@H](C[C@](C)(C(=O)NO)S(C)(=O)=O)C3)cc2)cc1 (stereo partly drawn) [Compound 74, (2R)—N-hydroxy-2-methyl-3-((5R)-3-(4′-(methylsulfinyl)-[1,1′-biphenyl]-4-yl)-4,5-dihydroisoxazol-5-yl)-2-(methylsulfonyl) propanamide]
< 0.5 nM | 0.5 µg/mL (≈ 1.05 µM) | COC(CO)c1ccc(-c2ccc(C3=NO[C@@H](C[C@](C)(C(=O)NO)S(C)(=O)=O)C3)cc2)cc1 (stereo partly drawn) [Compound 75, (2R)—N-hydroxy-3-((5R)-3-(4′-(2-hydroxy-1-methoxyethyl)-[1,1′-biphenyl]-4-yl)-4,5-dihydroisoxazol-5-yl)-2-methyl-2-(methylsulfonyl)propanamidepropanamide]
< 0.5 nM | 2 µg/mL (≈ 4.17 µM) | C[C@@](C[C@H]1CC(c2ccc(-c3ccc(S(C)(=N)=O)cc3)cc2)=NO1)(C(=O)NO)S(C)(=O)=O (stereo partly drawn) [Compound 76, (2R)—N-hydroxy-2-methyl-3-((5R)-3-(4′-(S-methylsulfonimidoyl)-[1,1′-biphenyl]-4-yl)-4,5-dihydroisoxazol-5-yl)-2-(methylsulfonyl)propanamide]
< 0.5 nM | 2 µg/mL (≈ 4.26 µM) | C[C@@](C[C@H]1CC(c2ccc(-c3ccc(-n4nccn4)cc3)cc2)=NO1)(C(=O)NO)S(C)(=O)=O [Compound 77, (R)-3-((R)-3-(4′-(2H-1,2,3-triazol-2-yl)-[1,1′-biphenyl]-4-yl)-4,5-dihydroisoxazol-5-yl)-N-hydroxy-2-methyl-2-(methylsulfonyl)propanamide]
< 0.5 nM | 1 µg/mL (≈ 2.48 µM) | C[C@@](C[C@H]1CC(c2ccc(-c3ccncc3)cc2)=NO1)(C(=O)NO)S(C)(=O)=O [Compound 78, (R)-3-((R)-3-(4-(pyridin-4-yl)phenyl)-4,5-dihydroisoxazol-5-yl)-N-hydroxy-2-methyl-2-(methylsulfonyl)propanamide]
< 0.5 nM | 0.35 µg/mL (≈ 0.747 µM) | COc1cc(F)c(-c2ccc(C3=NO[C@@H](C[C@](C)(C(=O)NO)S(C)(=O)=O)C3)cc2)c(F)c1 [Compound 79, (R)-3-((R)-3-(2′,6′-difluoro-4′-methoxy-[1,1′-biphenyl]-4-yl)-4,5-dihydroisoxazol-5-yl)-N-hydroxy-2-methyl-2-(methylsulfonyl)propanamide]
2 nM | 16 µg/mL (≈ 34.7 µM) | CC(C)(O)c1cc(-c2ccc(C3=NO[C@@H](C[C@](C)(C(=O)NO)S(C)(=O)=O)C3)cc2)ccn1 [Compound 81, (R)—N-hydroxy-3-((R)-3-(4-(2-(2-hydroxypropan-2-yl)pyridin-4-yl)phenyl)-4,5-dihydroisoxazol-5-yl)-2-methyl-2-(methylsulfonyl)propanamide]
< 0.5 nM | 0.35 µg/mL (≈ 0.799 µM) | C[C@@](C[C@H]1CC(c2ccc(-c3ccncc3Cl)cc2)=NO1)(C(=O)NO)S(C)(=O)=O [Compound 82, (R)-3-((R)-3-(4-(3-chloropyridin-4-yl)phenyl)-4,5-dihydroisoxazol-5-yl)-N-hydroxy-2-methyl-2-(methylsulfonyl)propanamide]
< 0.5 nM | 1 µg/mL (≈ 2.37 µM) | C[C@@](C[C@H]1CC(c2ccc(-c3cnccc3F)cc2)=NO1)(C(=O)NO)S(C)(=O)=O [Compound 83, (R)-3-((R)-3-(4-(4-fluoropyridin-3-yl)phenyl)-4,5-dihydroisoxazol-5-yl)-N-hydroxy-2-methyl-2-(methylsulfonyl)propanamide]
< 0.5 nM | 1 µg/mL (≈ 2.17 µM) | CC(C)(O)c1ccc(-c2ccc(C3=NO[C@@H](C[C@](C)(C(=O)NO)S(C)(=O)=O)C3)cc2)cn1 [Compound 84, (R)—N-hydroxy-3-((R)-3-(4-(6-(2-hydroxypropan-2-yl)pyridin-3-yl)phenyl)-4,5-dihydroisoxazol-5-yl)-2-methyl-2-(methylsulfonyl)propanamide]
< 0.5 nM | 0.5 µg/mL (≈ 1.2 µM) | Cc1cnccc1-c1ccc(C2=NO[C@@H](C[C@](C)(C(=O)NO)S(C)(=O)=O)C2)cc1 [Compound 85, (R)-3-((R)-3-(4-(3-methylpyridin-4-yl)phenyl)-4,5-dihydroisoxazol-5-yl)-N-hydroxy-2-methyl-2-(methylsulfonyl)propanamide]
< 0.5 nM | 0.35 µg/mL (≈ 0.713 µM) | CO[C@@H](CO)Cc1ccc(-c2ccc(C3=NO[C@@H](C[C@](C)(C(=O)NO)S(C)(=O)=O)C3)cc2)cc1 [Compound 86, (R)—N-hydroxy-3-((R)-3-(4′-((R)-3-hydroxy-2-methoxypropyl)-[1,1′-biphenyl]-4-yl)-4,5-dihydroisoxazol-5-yl)-2-methyl-2-(methylsulfonyl)propanamide]
< 0.5 nM | 0.25 µg/mL (≈ 0.56 µM) | Cc1cc(CO)ccc1-c1ccc(C2=NO[C@@H](C[C@](C)(C(=O)NO)S(C)(=O)=O)C2)cc1 [Compound 87, (R)—N-hydroxy-3-((R)-3-(4′-(hydroxymethyl)-2′-methyl-[1,1′-biphenyl]-4-yl)-4,5-dihydroisoxazol-5-yl)-2-methyl-2-(methylsulfonyl)propanamide]
< 0.5 nM | 0.25 µg/mL (≈ 0.503 µM) | C[C@@H](O)Cc1cc(F)c(-c2ccc(C3=NO[C@@H](C[C@](C)(C(=O)NO)S(C)(=O)=O)C3)cc2)c(F)c1 [Compound 88, (R)-3-((R)-3-(2′,6′-difluoro-4′-((R)-2-hydroxypropyl)-[1,1′-biphenyl]-4-yl)-4,5-dihydroisoxazol-5-yl)-N-hydroxy-2-methyl-2-(methylsulfonyl) propanamide]
< 0.5 nM | 0.71 µg/mL (≈ 1.48 µM) | C[C@@H](O)Cc1ccc(-c2ccc(C3=NO[C@@H](C[C@](C)(C(=O)NO)S(C)(=O)=O)C3)cc2)c(F)c1 [Compound 89, (R)-3-((R)-3-(2′-fluoro-4′-((R)-2-hydroxypropyl)-[1,1′-biphenyl]-4-yl)-4,5-dihydroisoxazol-5-yl)-N-hydroxy-2-methyl-2-(methylsulfonyl) propanamide]
< 0.5 nM | 0.5 µg/mL (≈ 1.05 µM) | Cc1cc(C[C@@H](C)O)ccc1-c1ccc(C2=NO[C@@H](C[C@](C)(C(=O)NO)S(C)(=O)=O)C2)cc1 [Compound 90, (R)-3-((R)-3-(2′-methyl-4′-((R)-2-hydroxypropyl)-[1,1′-biphenyl]-4-yl)-4,5-dihydroisoxazol-5-yl)-N-hydroxy-2-methyl-2-(methylsulfonyl) propanamide]
< 0.5 nM | 0.125 µg/mL (≈ 0.306 µM) | C[C@@](C[C@H]1CC(c2ccc(-c3ccsc3)cc2)=NO1)(C(=O)NO)S(C)(=O)=O [Compound 91, (R)—N-hydroxy-2-methyl-2-(methylsulfonyl)-3-((R)-3-(4-(thiophen-3-yl)phenyl)-4,5-dihydroisoxazol-5-yl)propanamide]
< 0.5 nM | 0.35 µg/mL (≈ 0.855 µM) | C[C@@](C[C@H]1CC(c2ccc(-c3cnsc3)cc2)=NO1)(C(=O)NO)S(C)(=O)=O [Compound 92, (R)—N-hydroxy-3-((R)-3-(4-(isothiazol-4-yl)phenyl)-4,5-dihydroisoxazol-5-yl)-2-methyl-2-(methylsulfonyl)propanamide]
< 0.5 nM | 2 µg/mL (≈ 4.08 µM) | C[C@@H](O)[C@@H](O)Cc1ccc(-c2ccc(C3=NO[C@@H](C[C@](C)(C(=O)NO)S(C)(=O)=O)C3)cc2)cc1 [Compound 93, (R)-3-((R)-3-(4′-((2S,3R)-2,3-dihydroxybutyl)-[1,1′-biphenyl]-4-yl)-4,5-dihydroisoxazol-5-yl)-N-hydroxy-2-methyl-2-(methylsulfonyl) propanamide]
< 0.5 nM | 0.25 µg/mL (≈ 0.541 µM) | C[C@@](C[C@H]1CC(c2ccc(-c3ccc([C@H](O)CO)cc3)cc2)=NO1)(C(=O)NO)S(C)(=O)=O [Compound 94, (R)-3-((R)-3-(4′-((S)-1,2-dihydroxyethyl)-[1,1′-biphenyl]-4-yl)-4,5-dihydroisoxazol-5-yl)-N-hydroxy-2-methyl-2-(methylsulfonyl)propanamide]
< 0.1 nM | 0.25 µg/mL (≈ 0.541 µM) | C[C@@](C[C@H]1CC(c2ccc(-c3ccc([C@@H](O)CO)cc3)cc2)=NO1)(C(=O)NO)S(C)(=O)=O [Compound 95, (R)-3-((R)-3-(4′-((R)-1,2-dihydroxyethyl)-[1,1′-biphenyl]-4-yl)-4,5-dihydroisoxazol-5-yl)-N-hydroxy-2-methyl-2-(methylsulfonyl)propanamide]
< 0.5 nM | 0.5 µg/mL (≈ 1.05 µM) | C[C@@](C[C@H]1CC(c2ccc(-c3ccc(C(O)CCO)cc3)cc2)=NO1)(C(=O)NO)S(C)(=O)=O (stereo partly drawn) [Compound 96, (2R)-3-((5R)-3-(4′-(1,3-dihydroxypropyl)-[1,1′-biphenyl]-4-yl)-4,5-dihydroisoxazol-5-yl)-N-hydroxy-2-methyl-2-(methylsulfonyl)propanamide]
0.6 nM | 2 µg/mL (≈ 4.6 µM) | C[C@@](C[C@H]1CC(c2ccc(C#CC3CCOCC3)cc2)=NO1)(C(=O)NO)S(C)(=O)=O [Compound 98, (R)—N-hydroxy-2-methyl-2-(methylsulfonyl)-3-((R)-3-(4-((tetrahydro-2H-pyran-4-yl)ethynyl)phenyl)-4,5-dihydroisoxazol-5-yl)propanamide]
< 0.5 nM | 0.25 µg/mL (≈ 0.569 µM) | C[C@@](C[C@H]1CC(c2ccc(-c3c(F)cncc3F)cc2)=NO1)(C(=O)NO)S(C)(=O)=O [Compound 100]
< 0.5 nM | 0.35 µg/mL (≈ 0.94 µM) | CCc1ccc(C2=NO[C@@H](C[C@](C)(C(=O)NO)S(C)(=O)=O)C2)cc1F [Compound 101, (R)-3-((R)-3-(4-ethyl-3-fluorophenyl)-4,5-dihydroisoxazol-5-yl)-N-hydroxy-2-methyl-2-(methylsulfonyl)propanamide]

Source: US9718792B2, “Isoxazoline hydroxamic acid derivatives as LpxC inhibitors” (priority 2014, dated 2017)
